Results: patent EP1368020B1, “METHOD FOR IDENTIFYING MAXI-K CHANNEL BLOCKERS” (priority 2001, dated 2002)

Tests used:
Type in all cases: cell-based
[1] = system: endogenous potassium conductance of HEK-293 cells; experiment: FRET membrane potential assay (VIPR), high-potassium addition to untransfected HEK-293 cells; conditions: Figure 1; for effect on the fluorescence signal caused by high-potassium addition: different/increasing concentrations of compound; for efficacy of Compound A or Compound B in the presence of Compound 1: selective maxi-K channel blocker Compound 1 present
Protocol: HEK-293 cells were plated on 96-well poly-D-lysine plates and incubated for about 16 to 24 hours at 37°C. The media was aspirated and the cells were washed once with D-PBS. Cells were incubated with 9 µM coumarin (CC2DMPE)-0.02% pluronic-127 in D-PBS for 30 minutes in the dark. Cells were washed twice with D-PBS, and incubated with 4.5 µM oxanol (DiSBAC2(3)) in the absence (Control) or presence of increasing concentrations of test compound, in the dark for 30 minutes. Plates were loaded onto a VIPR instrument and the fluorescence emission of both dyes was recorded for 10 seconds. A solution containing high-potassium was then added and the fluorescence emission of the dyes was recorded for another 10 seconds. The coumarin/oxanol ratio was calculated under both conditions. Before addition of high-potassium, this ratio was always normalized to 1.
The signal is not affected by the presence of different concentrations of the selective maxi-K channel blocker, Compound 1. […] A useful concentration range for these agents is 3-10 µM. Importantly, in the presence of the selective maxi-K channel blocker Compound 1, the efficacy of either Compound A or Compound B is unaffected.

[2] = molecular target: T1, maxi-K channels transiently expressed in TsA-201 cells (Homo sapiens, UniProt Q12791); experiment: FRET membrane potential assay (VIPR), maxi-K channels transiently expressed in TsA-201 cells; conditions: 3 µM, Figure 2
T1 construct: expressed in transfected cells; host or cells: TsA-201 cells, transient transfection

[3] = molecular target: T2, maxi-K channel (alpha and beta1 subunits) in stably transfected HEK-293 cells (Homo sapiens, UniProt Q12791); experiment: FRET membrane potential assay (VIPR), HEK-293 cells stably transfected with alpha and beta1 subunits of the maxi-K channel
T2 construct: expressed in transfected cells
Protocol: Transfection of the alpha and beta1 subunits of the maxi-K channel in HEK-293 cells was carried out as follows: HEK-293 cells were plated in 100 mm tissue culture treated dishes at a density of 3x10^6 cells per dish, and a total of five dishes were prepared. Cells were grown in a medium consisting of Dulbecco's Modified Eagle Medium (DMEM) supplemented with 10% Fetal Bovine serum, 1X L-Glutamine, and 1X Penicillin/Streptomycin, at 37°C, 10% CO2. For transfection with Maxi-K hα (pCIneo) and Maxi-K hβ1 (pIRESpuro) DNAs, 150 µl FuGENE6™ was added dropwise into 10 ml of serum free/phenol-red free DMEM and allowed to incubate at room temperature for 5 minutes. Then, the FuGENE6™ solution was added dropwise to a DNA solution containing 25 µg of each plasmid DNA, and incubated at room temperature for 30 minutes. After the incubation period, 2 ml of the FuGENE6™/DNA solution was added dropwise to each plate of cells and the cells were allowed to grow two days under the same conditions as described above. At the end of the second day, cells were put under selection media which consisted of DMEM supplemented with both 600 µg/ml G418 and 0.75 µg/ml puromycin. Cells were grown until separate colonies were formed. Five colonies were collected and transferred to a 6 well tissue culture treated dish. A total of 75 colonies were collected. Cells were allowed to grow until a confluent monolayer was obtained. Cells were then tested for the presence of maxi-K channel alpha and beta 1 subunits using an assay that monitors binding of ^125I-iberiotoxin-D19Y/Y36F to the channel. Cells expressing ^125I-iberiotoxin-D19Y/Y36F binding activity were then evaluated in a functional assay that monitors the capability of maxi-K channels to control the membrane potential of transfected HEK-293 cells using fluorescence resonance energy transfer (FRET) ABS technology with a VIPR instrument. The colony giving the largest signal to noise ratio was subjected to limiting dilution. For this, cells were resuspended at approximately 5 cells/ml, and 200 µl were plated in individual wells in a 96 well tissue culture treated plate, to add ca. one cell per well. A total of two 96 well plates were made. When a confluent monolayer was formed, the cells were transferred to 6 well tissue culture treated plates. A total of 62 wells were transferred. When a confluent monolayer was obtained, cells were tested using the FRET-functional assay. […]
The plates are loaded into a voltage/ion probe reader (VIPR) instrument, and the fluorescence emission of both CC2DMPE and DiSBAC2(3) are recorded for 10 sec. At this point, 100 µl of high-potassium solution (mM): 140 KCl, 2 CaCl2, 1 MgCl2, 20 Hepes-KOH, pH 7.4, 10 glucose are added and the fluorescence emission of both dyes recorded for an additional 10 sec. […]

T2 sequence (Q12791 whole entry): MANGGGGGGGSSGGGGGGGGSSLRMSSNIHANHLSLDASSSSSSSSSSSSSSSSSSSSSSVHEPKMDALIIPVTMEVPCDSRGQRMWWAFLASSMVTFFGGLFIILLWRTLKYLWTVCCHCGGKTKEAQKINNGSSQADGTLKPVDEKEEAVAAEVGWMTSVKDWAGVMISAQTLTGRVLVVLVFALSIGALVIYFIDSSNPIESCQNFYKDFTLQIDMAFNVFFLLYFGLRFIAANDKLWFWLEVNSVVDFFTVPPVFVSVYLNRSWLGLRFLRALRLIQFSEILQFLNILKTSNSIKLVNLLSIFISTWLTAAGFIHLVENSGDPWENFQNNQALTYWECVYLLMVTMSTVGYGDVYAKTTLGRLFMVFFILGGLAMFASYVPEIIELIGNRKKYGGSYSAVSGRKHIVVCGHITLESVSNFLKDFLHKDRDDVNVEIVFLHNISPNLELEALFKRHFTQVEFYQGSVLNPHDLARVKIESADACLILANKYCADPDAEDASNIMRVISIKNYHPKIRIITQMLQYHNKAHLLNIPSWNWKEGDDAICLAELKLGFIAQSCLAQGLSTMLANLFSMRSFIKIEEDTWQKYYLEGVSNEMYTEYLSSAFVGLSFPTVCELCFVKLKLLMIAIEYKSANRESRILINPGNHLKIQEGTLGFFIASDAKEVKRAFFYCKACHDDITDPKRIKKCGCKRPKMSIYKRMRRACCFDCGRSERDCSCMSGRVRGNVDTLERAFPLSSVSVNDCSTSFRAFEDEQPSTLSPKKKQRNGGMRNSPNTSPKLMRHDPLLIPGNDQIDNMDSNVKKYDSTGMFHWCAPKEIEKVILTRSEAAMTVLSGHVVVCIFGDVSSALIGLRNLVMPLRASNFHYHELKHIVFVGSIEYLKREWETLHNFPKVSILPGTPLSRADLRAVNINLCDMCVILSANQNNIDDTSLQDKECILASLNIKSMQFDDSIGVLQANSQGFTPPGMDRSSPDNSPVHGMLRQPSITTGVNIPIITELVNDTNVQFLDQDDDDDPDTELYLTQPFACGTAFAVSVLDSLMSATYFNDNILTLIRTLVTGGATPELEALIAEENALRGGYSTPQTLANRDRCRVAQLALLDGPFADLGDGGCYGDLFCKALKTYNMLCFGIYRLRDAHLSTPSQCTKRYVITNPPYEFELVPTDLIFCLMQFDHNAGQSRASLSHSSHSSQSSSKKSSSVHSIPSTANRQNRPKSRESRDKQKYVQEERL
T2 sequence (Q16558 whole entry partner): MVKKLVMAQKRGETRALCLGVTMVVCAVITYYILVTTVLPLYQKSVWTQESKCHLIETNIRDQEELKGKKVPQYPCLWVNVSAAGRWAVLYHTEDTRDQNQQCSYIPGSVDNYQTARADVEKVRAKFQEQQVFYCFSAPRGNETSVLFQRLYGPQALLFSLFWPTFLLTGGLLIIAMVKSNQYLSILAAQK
T1 sequence (Q12791 whole entry): as the sequence (Q12791 whole entry) above
T1 sequence (Q16558 whole entry partner): as the sequence (Q16558 whole entry partner) above

Compound	effect on the fluorescence signal caused by high-potassium addition [1]	effect on control signal (maxi-K channel activity) [2]	inhibition of the control signal ([3]; 3 µM Compound A present in all wells, increasing concentrations of compound, Figure 4)	block of the signal generated by addition of a high-potassium solution ([3]; compound alone, no endogenous conductance blocker, Figure 3)	inhibition of the signal generated by addition of a high-potassium solution ([3]; in the presence of Compound A, Figure 3)	efficacy of Compound A or Compound B in the presence of Compound 1 [1]	effect on the magnitude of the signal caused by addition of high-potassium solution ([3]; Compound A alone, Figure 3)
COc1ccc2c(c1)c(CC(=O)N(C(=O)NC1CCCCC1)C1CCCCC1)c(C)n2C(=O)c1ccc(Cl)cc1 [Compound 1]	not affected	completely inhibits the control signal	concentration-dependent inhibition of the control signal	only partially blocks the signal	complete inhibition of the signal	–	–
CCCNC(=O)OC1CCC(CNC(=O)c2ccccc2OC)(c2ccccc2)CC1 (stereo not shown) [Compound A]	concentration-dependent inhibition of the fluorescence signal	–	–	–	–	unaffected	no significant effect on the magnitude of the signal
COc1ccccc1C(=O)NCC1(c2ccccc2)CCC(=O)CC1 [Compound B]	concentration-dependent inhibition of the fluorescence signal	–	–	–	–	unaffected	–
